# Source: US8143263B2, “Therapeutic agents” (Astrazeneca AB, priority 2008, dated 2012)
# Biological target: T1, recombinant human pancreatic GLK (Homo sapiens, UniProt P35557)
# T1 sequence (P35557 1-465): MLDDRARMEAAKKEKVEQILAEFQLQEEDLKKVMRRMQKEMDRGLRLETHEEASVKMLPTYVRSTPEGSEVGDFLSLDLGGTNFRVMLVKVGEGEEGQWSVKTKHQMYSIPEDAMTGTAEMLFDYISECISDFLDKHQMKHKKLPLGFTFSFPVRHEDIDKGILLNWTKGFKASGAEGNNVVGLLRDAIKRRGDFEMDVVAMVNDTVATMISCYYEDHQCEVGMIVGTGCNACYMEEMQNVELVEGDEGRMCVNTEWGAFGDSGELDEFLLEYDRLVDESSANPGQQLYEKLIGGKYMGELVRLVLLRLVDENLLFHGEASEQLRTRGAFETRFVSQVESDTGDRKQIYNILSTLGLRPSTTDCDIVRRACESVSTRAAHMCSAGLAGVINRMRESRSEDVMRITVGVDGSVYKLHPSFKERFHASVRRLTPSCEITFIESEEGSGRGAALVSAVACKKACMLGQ
# Assay: biochemical
row,SMILES,EC50 [nM]
1,"COCC(Sc1ncnc2c1cnn2-c1ccccc1Cl)C(=O)Nc1ccc(C)cn1 (stereo not shown) [Example 62, 2-{[1-(2-Chlorophenyl)-1H-pyrazolo[3,4-d]pyrimidin-4-yl]thio}-3-methoxy-N-(5-methylpyridin-2-yl)propanamide]",12000
2,"Cc1ccnc(NC(=O)C(COC(C)C)Oc2ncnc3c2cnn3-c2ccccc2Cl)c1 (stereo not shown) [Example 116, 2-[1-(2-chlorophenyl)pyrazolo[4,5-e]pyrimidin-4-yl]oxy-3-isopropoxy-N-(4-methyl-2-pyridyl)propanamide]",2300
3,"O=C(Nc1ccccn1)[C@H](COCCO)Oc1ncnc2c1cnn2-c1c(Cl)cccc1Cl [Example 250, (2S)-2-[1-(2,6-dichlorophenyl)pyrazolo[3,4-d]pyrimidin-4-yl]oxy-3-(2-hydroxyethoxy)-N-(2-pyridyl)propanamide]",230
4,"Cc1ccc(NC(=O)[C@H](COC(C)C)Oc2ncnc3c2cnn3-c2ncccc2C)nc1 [Example 125, (2S)-3-Isopropoxy-N-(5-methylpyridin-2-yl)-2-(1-(3-methylpyridin-2-yl)-1H-pyrazolo[3,4-d]pyrimidin-4-yloxy)propanamide]",310
5,"O=C(Nc1ccc(F)cn1)[C@H](CN1CC(O)C1)Oc1ncnc2c1cnn2-c1ncccc1Cl [Example 243, (2S)-2-[1-(3-chloro-2-pyridyl)pyrazolo[3,4-d]pyrimidin-4-yl]oxy-N-(5-fluoro-2-pyridyl)-3-(3-hydroxyazetidin-1-yl)propanamide]",570
6,"Cc1cnc(NC(=O)[C@H](CN2CC(O)C2)Oc2ncnc3c2cnn3-c2ncccc2Cl)s1 [Example 249, (2S)-2-[1-(3-chloro-2-pyridyl)pyrazolo[3,4-d]pyrimidin-4-yl]oxy-3-(3-hydroxyazetidin-1-yl)-N-(5-methylthiazol-2-yl)propanamide]",590
7,"COC[C@H](Oc1ncnc2c1cnn2-c1ccccc1Cl)C(=O)Nc1ccc(C)cn1 [Example 87, (2S)-2-(1-(2-chlorophenyl)-1H-pyrazolo[3,4-d]pyrimidin-4-yloxy)-3-methoxy-N-(5-methylpyridin-2-yl)propanamide]",320
8,"COCC[C@@H](Oc1ncnc2c1cnn2-c1ccccn1)C(=O)Nc1ccc(C)cn1 [(R)-4-methoxy-N-(5-methyl-2-pyridyl)-2-[1-(2-pyridyl)pyrazolo[4,5-e]pyrimidin-4-yl]oxy-butanamide]",> 100000
9,"N#Cc1ccc(NC(=O)[C@H](COCCO)Oc2ncnc3c2cnn3-c2ncccc2Cl)nc1 [Example 162, (2S)-2-(1-(3-chloropyridin-2-yl)-1H-pyrazolo[3,4-d]pyrimidin-4-yloxy)-N-(5-cyanopyridin-2-yl)-3-(2-hydroxyethoxy)propanamide]",1500
10,"CCOC[C@H](Oc1ncnc2c1cnn2-c1ncccc1Cl)C(=O)Nc1ccc(C)cn1 [Example 103, (2S)-2-[1-(3-Chloropyridin-2-yl)pyrazolo[4,5-e]pyrimidin-4-yl]oxy-3-ethoxy-N-(5-methylpyridin-2-yl)propanamide]",280
11,"COC[C@H](Oc1ncnc2c1cnn2-c1ncccc1Cl)C(=O)Nc1ccc(C)cn1 [Example 89, (2S)-2-(1-(3-chloropyridin-2-yl)-1H-pyrazolo[3,4-d]pyrimidin-4-yloxy)-3-methoxy-N-(5-methylpyridin-2-yl)propanamide]",1500
12,"Cc1cnc(NC(=O)[C@H](CN2CC(O)C2)Oc2ncnc3c2cnn3-c2ccccc2Cl)cn1 [Example 219, (2S)-2-[1-(2-chlorophenyl)pyrazolo[4,5-e]pyrimidin-4-yl]oxy-3-(3-hydroxyazetidin-1-yl)-N-(5-methylpyrazin-2-yl)propanamide]",280
13,"N#Cc1cccc(Cl)c1-n1ncc2c(O[C@@H](COCCO)C(=O)Nc3ccccn3)ncnc21 [Example 238, (2S)-2-[1-(2-chloro-6-cyano-phenyl)pyrazolo[3,4-d]pyrimidin-4-yl]oxy-3-(2-hydroxyethoxy)-N-(2-pyridyl)propanamide]",420
14,"Cc1ccc(NC(=O)[C@H](COC2CCC2)Oc2ncnc3c2cnn3-c2nccnc2C)nc1 [Example 144, (2S)-3-(cyclobutoxy)-2-[1-(3-methylpyrazin-2-yl)pyrazolo[4,5-e]pyrimidin-4-yl]oxy-N-(5-methyl-2-pyridyl)propanamide]",510
15,"O=C(Nc1ccc(Cl)cn1)[C@H](CN1CC(O)C1)Oc1ncnc2c1cnn2-c1ncccc1Cl [Example 165, (2S)—N-(5-chloropyridin-2-yl)-2-[1-(3-chloropyridin-2-yl)pyrazolo[4,5-e]pyrimidin-4-yl]oxy-3-(3-hydroxyazetidin-1-yl)propanamide]",370
16,"CC(C)OCC(Oc1ncnc2c1cnn2-c1ccccc1Cl)C(=O)Nc1ccccn1 (stereo not shown) [Example 118, 2-[1-(2-chlorophenyl)pyrazolo[4,5-e]pyrimidin-4-yl]oxy-3-isopropoxy-N-(2-pyridyl)propanamide]",150

row,SMILES,EC50 [nM]
1,"COCC[C@@H](Oc1ncnc2c1cnn2-c1ccccc1C)C(=O)Nc1ccc(C)cn1 [Example 18, (R)-4-methoxy-2-{[1-(2-methylphenyl)-1H-pyrazolo[3,4-d]pyrimidin-4-yl]oxy}-N-(5-methylpyridin-2-yl)butanamide]",32000
2,"CC(C)OC[C@H](Oc1ncnc2c1cnn2-c1ccccc1Cl)C(=O)Nc1ccc(C#N)cn1 [Example 113a, (2S)-2-[1-(2-chlorophenyl)pyrazolo[4,5-e]pyrimidin-4-yl]oxy-N-(5-cyano-2-pyridyl)-3-isopropoxy-propanamide]",300
3,"Cc1ccc(NC(=O)[C@H](COC(C)C)Oc2ncnc3c2cnn3-c2ccccc2C#N)nc1 [Example 97a, (2S)-2-[1-(2-cyanophenyl)pyrazolo[4,5-e]pyrimidin-4-yl]oxy-N-(5-methylpyridin-2-yl)-3-propan-2-yloxypropanamide]",460
4,"COCCC(Sc1ncnc2c1cnn2-c1ccccc1Cl)C(=O)Nc1nc(C)cs1 (stereo not shown) [Example 53, 2-{[1-(2-chlorophenyl)-1H-pyrazolo[3,4-d]pyrimidin-4-yl]thio}-4-methoxy-N-(4-methyl-1,3-thiazol-2-yl)butanamide]",780
5,"CC(C)OC[C@H](Oc1ncnc2c1cnn2-c1ncccc1Cl)C(=O)Nc1ccccn1 [Example 127k, (2S)-2-[1-(3-chloro-2-pyridyl)pyrazolo[4,5-e]pyrimidin-4-yl]oxy-3-isopropoxy-N-(2-pyridyl)propanamide]",560
6,"Cc1cnc(NC(=O)[C@@H](Oc2ncnc3c2cnn3-c2ncccc2Cl)C(C)C)cn1 [Example 94, (2S)-2-(1-(3-chloropyridin-2-yl)-1H-pyrazolo[3,4-d]pyrimidin-4-yloxy)-3-methyl-N-(5-methylpyrazin-2-yl)butanamide]",9200
7,"Cc1cnc(NC(=O)[C@H](CN2CC(O)C2)Oc2ncnc3c2cnn3-c2c(Cl)cccc2C#N)cn1 [Example 239, (2S)-2-[1-(2-chloro-6-cyano-phenyl)pyrazolo[3,4-d]pyrimidin-4-yl]oxy-3-(3-hydroxyazetidin-1-yl)-N-(5-methylpyrazin-2-yl)propanamide]",490
8,"O=C(Nc1ccccn1)[C@H](CN1CC(O)C1)Oc1ncnc2c1cnn2-c1ncccc1Cl [Example 241, (2S)-2-[1-(3-chloro-2-pyridyl)pyrazolo[3,4-d]pyrimidin-4-yl]oxy-3-(3-hydroxyazetidin-1-yl)-N-(2-pyridyl)propanamide]",350
9,"Cc1nc(NC(=O)[C@H](COC(C)C)Oc2ncnc3c2cnn3-c2ncccc2Cl)nn1C [(2S)-2-[1-(3-chloro-2-pyridyl)pyrazolo[4,5-e]pyrimidin-4-yl]oxy-N-(1,5-dimethyl-1,2,4-triazol-3-yl)-3-isopropoxy-propanamide]",> 100000
10,"COCCC(Oc1ncnc2c1cnn2-c1cccc(OC)c1)C(=O)Nc1ccc(C)cn1 (stereo not shown) [Example 13, 4-methoxy-2-{[1-(3-methoxyphenyl)-1H-pyrazolo[3,4-d]pyrimidin-4-yl]oxy}-N-(5-methylpyridin-2-yl)butanamide]",1400
11,"COc1ccccc1-n1ncc2c(OC(C)C(=O)Nc3ccc(C)cn3)ncnc21 (stereo not shown) [Example 44, 2-{[1-(2-Methoxyphenyl)-1H-pyrazolo[3,4-d]pyrimidin-4-yl]oxy}-N-(5-methylpyridin-2-yl)propanamide]",3400
12,"Cc1cnc(NC(=O)[C@H](COC2CCC2)Oc2ncnc3c2cnn3-c2ncccc2C)cn1 [Example 141, (2S)-3-cyclobutoxy-N-(5-methylpyrazin-2-yl)-2-(1-(3-methylpyridin-2-yl)-1H-pyrazolo[3,4-d]pyrimidin-4-yloxy)propanamide]",340
13,"Cc1ccc(F)cc1-n1ncc2c(O[C@@H](COCCO)C(=O)Nc3ccc(Cl)cn3)ncnc21 [Example 180, (2S)—N-(5-chloropyridin-2-yl)-2-(1-(5-fluoro-2-methylphenyl)-1H-pyrazolo[3,4-d]pyrimidin-4-yloxy)-3-(2-hydroxyethoxy)propanamide]",940
14,"N#Cc1ccc(NC(=O)[C@H](COCCO)Oc2ncnc3c2cnn3-c2cccc(Cl)c2Cl)nc1 [Example 203, (2S)—N-(5-cyanopyridin-2-yl)-2-(1-(2,3-dichlorophenyl)-1H-pyrazolo[3,4-d]pyrimidin-4-yloxy)-3-(2-hydroxyethoxy)propanamide]",830
15,"Cc1ccc(NC(=O)[C@H](COCCO)Oc2ncnc3c2cnn3-c2cccc(C#N)c2C)nc1 [Example 208, (2S)-2-(1-(3-cyano-2-methylphenyl)-1H-pyrazolo[3,4-d]pyrimidin-4-yloxy)-3-(2-hydroxyethoxy)-N-(5-methylpyridin-2-yl)propanamide]",2800
